Series [1] in a line: Stability studies of sitagliptin salts (10 months storage; HPLC, XRD, visual inspection). Type of series: physicochemical. The settings on record: for Purity (HPLC) 10 months later / Aspect/Colour 10 months later / XRD analysis 10 months later: stored 10 months at room temperature, normal pressure, ambient atmosphere; for Aspect/Colour 10 months later: visual inspection; for Stability in terms of polymorphic form: after ten months of storage; for XRD analysis 10 months later: initial XRD Form I. The method, then: The XRD diffractograms were obtained using a RX SIEMENS D5000 diffractometer with a vertical goniometer, a copper anodic tube, and radiation CuKα, λ=1.54056.
Mobile phase A was a mixture of methanol and 5 mM dibasic sodium phosphate buffer, pH=7.0 (70:30, v/v). The buffer was prepared by dissolving 0.217 g of dibasic sodium phosphate in 300 mL of water and adjusting the pH of the solution to 7.0±0.1 with phosphoric acid, and filtered through a 0.22 μm nylon membrane under vacuum. Mobile phase B was methanol.
The following gradient was used: […]
The samples were analyzed after 10 months by HPLC, XRD, and visual inspection.

The conditions of series [2]: room temperature.
[3] abbreviates: listed as sitagliptin ethanedisulfonate Form I.
Where [4] appears, read: listed as sitagliptin galactarate Form I.

Structures can show the parent of a compound that is named as a salt. Where two headings read alike, the source gives them in different places.

Regarding `NC(CC(=O)N1CCn2c(nnc2C(F)(F)F)C1)Cc1cc(F)c(F)cc1F.O=C(O)C(O)C(O)C(O)C(O)CO` [D-Gluconate, sitagliptin D-gluconate], in series [1], the “Purity (HPLC) 10 months later” value was determined as 96.29% and the “Aspect/Colour 10 months later” value was “beige”.

As to `N[C@@H](CC(=O)N1CCn2c(nnc2C(F)(F)F)C1)Cc1cc(F)c(F)cc1F.O=S(=O)(O)CCS(=O)(=O)O` [Ethane-disulfonate, sitagliptin ethanedisulfonate], the “Descriptive term (solubility in water)” value in series [2] is “Freely soluble”. For the same compound, the “Descriptive term (solubility in water)” value in series [2] (setting [3]) was “freely soluble”. Besides, in series [1], the “Stability in terms of polymorphic form” value was “highly stable”, the “Purity (HPLC) 10 months later” value is 99.83%, the “XRD analysis 10 months later” value was “Form I” and the “Aspect/Colour 10 months later” value is recorded as “off-white”. Also, in series [1] (setting [3]), the “Purity (HPLC) 10 months later” value is reported as “higher than 99.8%”.

Consider `N[C@@H](CC(=O)N1CCn2c(nnc2C(F)(F)F)C1)Cc1cc(F)c(F)cc1F.O=C(O)[C@@H](O)[C@H](O)[C@H](O)[C@@H](O)C(=O)O` [Galactarate, sitagliptin galactarate], for which the “Descriptive term (solubility in water)” value in series [2] is recorded as “Sparingly soluble”. For the same compound, in series [2] (setting [4]), the “Descriptive term (solubility in water)” value is listed as “sparingly soluble”. In series [1], the “Stability in terms of polymorphic form” value is “highly stable”, the “Purity (HPLC) 10 months later” value turned out to be 99.15%, the “XRD analysis 10 months later” value was “Form I” and the “Aspect/Colour 10 months later” value was “off-white”. In series [1] (setting [4]), the “Purity (HPLC) 10 months later” value is “higher than 99.1%”.

For `N[C@@H](CC(=O)N1CCn2c(nnc2C(F)(F)F)C1)Cc1cc(F)c(F)cc1F` [Hydrobromide, sitagliptin hydrobromide], in series [1], the “Purity (HPLC) 10 months later” value was determined as 98.92%, the “XRD analysis 10 months later” value was “Form I” and the “Aspect/Colour 10 months later” value is recorded as “off-white”.

`N[C@@H](CC(=O)N1CCn2c(nnc2C(F)(F)F)C1)Cc1cc(F)c(F)cc1F.N[C@@H](CC(=O)O)C(=O)O` [L-aspartate, sitagliptin L-aspartate]: in series [1], the “Purity (HPLC) 10 months later” value is reported as 97.14% and the “Aspect/Colour 10 months later” value is reported as “white”.

On to `N#CS.N[C@@H](CC(=O)N1CCn2c(nnc2C(F)(F)F)C1)Cc1cc(F)c(F)cc1F` [Thiocyanate, sitagliptin thiocyanate], for which, in series [1], the “Stability in terms of polymorphic form” value is on record as “highly stable”, the “Purity (HPLC) 10 months later” value was found to be 99.22%, the “XRD analysis 10 months later” value was “Form I” and the “Aspect/Colour 10 months later” value is listed as “light pink”. Moreover, the “Purity (HPLC) 10 months later” value in series [1] (listed as sitagliptin thiocyanate Form I) is “higher than 99.2%”.

For sitagliptin (S)-pyroglutamate, in series [1], the “Purity (HPLC) 10 months later” value amounted to 98.64% and the “Aspect/Colour 10 months later” value is given as “off-white”.

On to sitagliptin acetate, for which, in series [1], the “Purity (HPLC) 10 months later” value was 98.90% and the “Aspect/Colour 10 months later” value is reported as “off-white”.

With sitagliptin hemi-L-malate, the “Purity (HPLC) 10 months later” value in series [1] came to 98.91%.

Take sitagliptin oxalate: in series [1], the “Purity (HPLC) 10 months later” value is given as 95.95%, the “XRD analysis 10 months later” value is listed as “Form I” and the “Aspect/Colour 10 months later” value is “white”.

For sitagliptin succinate, in series [1], the “Purity (HPLC) 10 months later” value is 98.88% and the “Aspect/Colour 10 months later” value is listed as “off-white”.

Values taken from patent US8389724B2, “Crystalline salt forms of a 5,6,7,8-tetrahydro-1,2,4-triazolo[4,3-a]pyrazine derivative” (Corporacion Medichem, S.L., priority 2008, dated 2013).
